Test results: US20090028871A1, “NOVEL USE OF LIGANDS SPECIFIC TO FEX-2 POLYPEPTIDE” (KYUNGPOOK NATIONAL UNIVERSITY INDUSTRY-ACADEMIC COOPERATION …, priority 2004, published 2009)

Tests used:
L/FEX-2 cells = assay: Inhibition of binding and phagocytosis of aged red blood cells by L/FEX-2 cells; format: cell-based, mouse; details: L/FEX-2 cells pre-cultured with 100 μM, 37° C., 30 minutes; relative to control group taken as 100%
Protocol: Whether or not aged red blood cells are bound and phagocytosed by the L/FEX-2 cells prepared in Example <1-2> and L/Mock cells as a control group was examined. For this purpose, normal red blood cells obtained from normal adult volunteers were first diluted with PBS to a hematocrit concentration of 20% and cultured at 37° C. for 4 days, thus preparing aged red blood cells. Then, each of L/FEX-2 cells, L/Mock cells and normal L cells was cultured to a confluent 6-well plate comprising Dulbecco's modified Eagle's medium (DMEM). To the culture media, aged red blood cells and normal red blood cells were added to a hematocrit concentration of 1% and cultured at 37° C. for one hour. Then, the cells were washed five times with PBS, and observed for the binding of the aged red blood cells and normal red blood cells using an optical microscope. The number of red blood cells bound to 100 randomly selected L/FEX-2 cells was counted and averaged. To analyze phagocytosis, the cells were washed with PBS and treated with water for 10 seconds to completely dissolve undigested cells. Then, the L/FEX-2 cells were stained using the Diff quick staining kit (IMEM Ins., San Marcos, Calif., USA), and five sites from the stained cells were randomly selected and counted for the number of cells which have phagocytosed red blood cells phagocytosed. Binding and phagocytosis indexes (%) were expressed as the percentages of cells having red blood cells bound and phagocytosed thereby, relative to the entire L/FEX-2 cells.
To the L/FEX-2 cells prepared in Example <1-2>, 100 μg/ml of the human FEX-2 monoclonal antibody (5G3) was added and the mixture was pre-cultured at 37° C. for one hour. As a control group, mouse immunoglobulin (IgG1) in place of the FEX-2 monoclonal antibody was used. […] After completion of the culture, the binding and phagocytosis of the aged red blood cells were analyzed in the same manner as in Example <4-1>. In this regard, the binding and phagocytosis of the aged red blood cells were expressed as inhibition percentage relative to the case of L/FEX-2 cells, which have not been pre-cultured with the antibody.
Whether the binding and phagocytosis of red blood cells by the L/FEX-2 cells are inhibited, it was examined by pre-culturing the L/FEX-2 cells with each of the PS liposome, PI liposome, PG liposome, PE liposome, PA liposome and PC liposome prepared in Example <5-3> and then additionally culturing the pre-cultured cells with aged red blood cells. […] After completion of the culture, the binding and phagocytosis of the aged red blood cells were analyzed in the same manner as in. […] The binding and phagocytosis of aged red blood cells were expressed as values relative to the control group taken as 100%. […]

[1] = system: premyelomonocytic leukemic U937 cells; assay: Induction of apoptosis in U937 cells (annexin V flow cytometry); format: cell-based, human; details: 100 ng/ml, 4 hours
Protocol: For this purpose, the apoptosis of human leukemic Jurkat T cells (Korean cell line bank) and premyelomonocytic leukemic U937 cells (Korean cell line bank) was induced. The cells were cultured in an RPMI 1640 medium comprising 10% fetal bovine serum. The induction of apoptosis of the Jurkat T cells was performed according to a known method by inoculating the Jurkat T cells in a medium comprising 100 ng/ml of an anti-Fas antibody (CH-11) and culturing the inoculated cells for 6 hours (Oka, K. et al., Proc Natl Acad Sci USA, 95:9535-40, 1998). Also, the induction of apoptosis of the U937 cells was performed according to a known method by inoculating the U937 cells in a medium comprising 100 ng/ml of ectoposide and culturing the inoculated cells for 4 hours (Bave, U., et. al., J Immunol 165:3519-26, 2000). The degree of apoptosis of the cells was determined by measuring the amount of phosphatidylserine expressed on the cell surface, by flow cytometry in the same manner as in Example <5-1> using the annexin V apoptosis detection kit (Santacruz) according to the manufacturer's instruction.

Structure (SMILES) | binding of aged red blood cells (L/FEX-2 cells) | phagocytosis of aged red blood cells (L/FEX-2 cells) | apoptosis of the cells (phosphatidylserine on cell surface, annexin V) [1]
N[C@H](COP(=O)(O)O)C(=O)O [PDS, phospho-D-serine] | no significant effect | no significant effect | 
N[C@@H](COP(=O)(O)O)C(=O)O [PLS, phospho-L-serine] | significant inhibition | significant inhibition | 
COc1cc([C@@H]2c3cc4c(cc3[C@@H](O[C@@H]3O[C@@H]5CO[C@@H](C)O[C@H]5[C@H](O)[C@H]3O)[C@H]3COC(=O)[C@H]23)OCO4)cc(OC)c1O [ectoposide] |  |  | induced
